In patent publication US7906549B2, “Aminocarboxylic acid derivative and medicinal use thereof” (Ono Pharmaceutical Co., Ltd., priority 2004, dated 2011):
Structures can show the parent of a compound that is named as a salt.

Experiments:
lymphocyte in blood = experiment: Counting the number of lymphocyte in blood after oral administration; format: in vivo, male BALB/c mice or male Sprague-Dawley rats; conditions: Mus musculus, 24 hours after the administration, read-out: ED50 (dose required for lowering the blood cell count to 50%)
Method: Test compounds were orally administered to male BALB/c mice or male Sprague-Dawley rats (Charles River Laboratories, Japan, Inc., 6-week-old at the time of use). 4 to 72 hours after the administration, the blood was collected from the aorta abdominalis under ether anesthesia. The number of the total leucocyte count, the lymphocyte count, the neutrophil count, the erythrocyte count, the platelet count in blood and the hematocrit value were measured with a multipurpose automatic blood cell counter (SF-3000, manufactured by Sysmex Corporation). Evaluation was made by setting the average blood cell count in a vehicle-administered group (vehicle group) as 100% and calculating the percentage of vehicle from the average blood cell count of each test compound-administered group.

Human EDG-1 = molecular target: T1, Human EDG-1 (Homo sapiens, UniProt P21453); experiment: Agonistic activity against EDG by monitoring changes in intracellular calcium ion [Ca^2+]i concentration; format: cell-based; conditions: Human EDG-1 overexpressing CHO cells; read-out: EC50 (increase in intracellular calcium ion concentration)
T1 construct: expressed in transfected cells; host or cells: CHO cells
T1 sequence (P21453 whole entry): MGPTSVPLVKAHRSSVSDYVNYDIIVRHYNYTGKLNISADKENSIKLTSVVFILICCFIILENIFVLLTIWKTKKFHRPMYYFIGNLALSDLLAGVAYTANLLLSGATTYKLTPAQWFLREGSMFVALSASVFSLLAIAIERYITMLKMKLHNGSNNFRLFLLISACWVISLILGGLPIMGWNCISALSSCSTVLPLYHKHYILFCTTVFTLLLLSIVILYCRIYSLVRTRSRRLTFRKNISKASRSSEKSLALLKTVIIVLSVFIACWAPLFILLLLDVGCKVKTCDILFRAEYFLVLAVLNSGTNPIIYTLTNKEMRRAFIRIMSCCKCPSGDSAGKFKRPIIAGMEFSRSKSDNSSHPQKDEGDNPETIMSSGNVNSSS
Method: Human EDG-1, EDG-3, EDG-5, or EDG-8 gene overexpressing CHO cells were cultured in Ham's F12 medium (manufactured by GibcoBRL) containing 10% FBS (fetal bovine serum), penicillin/streptomycin, and blasticidin (5 μg/ml). The cultured cells were incubated in a 5 μM Fura2-AM solution (Ham's F12 medium containing 10% of FBS, 20 mM HEPES buffer (pH7.4), and 2.5 mM probenecid) at 37° C. for 60 minutes. After washing once with Hanks solution containing 20 mM HEPES buffer (pH7.4) and 2.5 mM probenecid, the plate was soaked in the same solution. Then, the plate was set on a fluorescent drug screening system (FDSS 6000; Hamamatsu Photonics K. K.) and the intracellular calcium ion concentration was measured without stimulation for 30 seconds. A test compound (final concentration: 1 nM to 10 μM, dimethylsulfoxide (DMSO) solution) was added and S1P (final concentration: 100 nM) was added 5 minutes thereafter. Then, the increase in the intracellular calcium ion concentration was measured before and after the addition of S1P at intervals of 3 seconds (excitation wavelength: 340 nm and 380 nm, fluorescence wavelength: 500 nm).
The agonistic activity of the compound against each EDG was determined by using the peak value due to S1P-stimulation in a well containing DMSO as a substitute for the evaluated compound as a control value (A), comparing the value […] the addition of the evaluated compound with the increased value (B) in the fluorescent ratio after the addition, and calculating the increase ratio (%) in the intracellular calcium ion [Ca^2+]i concentration as: increase ratio (%)=(B/A)×100. Increase ratios of the compound at individual concentrations were determined and the EC50 value was calculated.

heart rate = experiment: Evaluation of cardiotoxicity (bradycardia); format: in vivo; conditions: rabbits, intravenously administered, dose of 0.01 mg/kg
Text: A catheter was inserted into the jugular vein and carotid artery (or the femoral vein and femoral artery) of mammals (e.g., SD rat and a rabbit). The tip of the arterial cannula was connected to a pressure transducer (DX-100, manufactured by NIHON KOHDEN CORP.), thereby measuring blood pressure through a strain pressure amplifier (AP-641G, manufactured by NIHON KOHDEN CORP.) and measuring heart rate through an instantaneous heart rate measuring unit (AT-601G, manufactured by NIHON KOHDEN CORP.), respectively. Alternatively, heart rate was measured with an electrocardiogram. Under anesthesia or under awareness after arousal was induced, the test compound was administered intravenously or administered orally. Then, changes in blood pressure and heart rate were measured.

[1] = test system: experimental allergic encephalomyelitis; experiment: Experimental allergic encephalomyelitis (EAE) model, Case 1: administration from the day of sensitization; format: in vivo, Female LEW/CrlCrlj rats; conditions: from the day of sensitization to Day 19
Method: (§1) Killed Mycobacterium tuberculosis (M. tuberculosis H37 Ra, Difco, Cat No. 231141) was suspended in distilled water for injection to dissolve MBP (Myelin basic protein, SIGMA, Cat No. M-2295) (Killed Mycobacteriumtuberculosis: 1000 μg/mL, MBP: 60 μg/mL). This solution was mixed with an equivalent amount of FCA (Freund Complete Adjuvant, CHEMICON, Cat No. AR001) to thereby prepare an emulsion. Female LEW/CrlCrlj rats (Charles River Laboratories, Japan, Inc., 6-week-old at the time of purchase, 7-week-old at the time of sensitization) were antigen-sensitized by a single subcutaneous injection (0.1 mL/rat) of the emulsion in the right foot pad under slight ether anesthesia, thereby inducing the symptoms of experimental allergic encephalomyelitis. The day of sensitization was defined as Day 0.
The EAE symptoms of the rats were observed every day from Day 8 to Day 20, and were evaluated based on the following criteria: Tail relaxation: 1 point, Incomplete paralysis of hind legs: 1 point, Complete paralysis of hind legs: another 1 point, and Incontinentia: 1 point. The maximum score was 4 points. Death was 5 points.
Using a 0.5% MC solution (0.5 w/v % Methyl Cellulose 400cP Solution, Wako Pure Chemical Industries, Ltd., Cat No. 133-14255) as a vehicle, the test compound was forcibly administered orally in an amount of 5 mL/kg once a day from […] the day of sensitization to Day 19. To a control group, the same amount of 0.5% MC solution was forcibly administered orally once a day for the same period. The body weight was measured every day from Day 0 and the dose was determined based on the body weight of each day.

[2] = test system: experimental allergic encephalomyelitis; experiment: Experimental allergic encephalomyelitis (EAE) model, Case 2: administration from immediately before development of symptoms; format: in vivo, Female LEW/CrlCrlj rats; conditions: oral dose of 0.3 mg/kg once a day, from Day 9 to Day 19
Method: as §1, with “Mycobacterium tuberculosis:” for “Mycobacteriumtuberculosis:”, “The day of sensitization was defined as Day 0.” left out
The EAE symptoms of the rats were observed every day from Day 7 to Day 20, and evaluated based on the following criteria: Tail relaxation: 1 point, Incomplete paralysis of hind legs: 1 point, Complete paralysis of hind legs: another 1 point, and Incontinentia: 1 point. […]
Using 0.5% MC solution (0.5 w/v % Methyl Cellulose 400cP Solution, Wako Pure Chemical Industries, Ltd., Cat No. 133-14255) as a vehicle, the test compound was forcibly administered orally in an amount of 5 mL/kg once a day from Day 9 […] sensitization to Day 19. […] The body weight was measured every day from Day 9 and the dose was determined based on the body weight of each day.

[3] = oral dose of 0.3 mg/kg once a day

| SMILES | melting point [°C] | EC50 (Human EDG-1) [nM] | further results |
| --- | --- | --- | --- |
| O=C(O)C1CN(CC2=C(Cl)c3ccc(OCCCC4CCCCC4)cc3CC2)C1 [Example 27-7, 1-{[1-chloro-6-(3-cyclohexylpropoxy)-3,4-dihydronaphthalen-2-yl]methyl}azetidine-3-carboxylic acid] |  | 0.7 | ED50 (lymphocyte in blood): 1.6 mg/kg |
| O=C(O)CCN1CCc2c([nH]c3cc(OCCCc4ccccc4)ccc23)C1 [Example 18, 3-[7-(3-phenylpropoxy)-1,3,4,9-tetrahydro-2H-β-carbolin-2-yl]propanoic acid trifluoroacetate] |  | 662 |  |
| CC(C)Cc1ccc(-c2nc(-c3ccc4c(c3)CCN(CCC(=O)O)C4)no2)cc1 [Example 13-4, 3-[6-[5-(4-isobutylphenyl)-1,2,4-oxadiazol-3-yl]-3,4-dihydro-2(1H)-isoquinolinyl]propanoic acid trifluoroacetate] |  | 41 |  |
| CC1=C(CN2CC(C(=O)O)C2)CCc2cc(OCc3ccc(C(F)(F)F)cc3C(F)(F)F)ccc21 [Example 37-5, 1-[(6-{[2,4-bis(trifluoromethyl)benzyl]oxy}-1-methyl-3,4-dihydro-2-naphthalenyl)methyl]-3-azetidinecarboxylic acid] |  |  | inhibition of the development of EAE symptoms [1, 3]: almost completely inhibited; inhibition of the development of EAE symptoms [2]: had the effect of inhibiting the development of symptoms |
| CC1=C(CN2CC(C(=O)O)C2)CCc2cc(OC[C@@H](C)Cc3ccc(F)cc3)ccc21 [Example 7-4, 1-[(6-{[(2S)-3-(4-fluorophenyl)-2-methylpropyl]oxy}-1-methyl-3,4-dihydro-2-naphthalenyl)methyl]-3-azetidinecarboxylic acid] | 142.5 to 143.6 |  |  |
| O=C(O)CCN1CC=C(c2ccc(OCCCc3ccc(Cl)cc3)cc2)CC1 [Example 29-1, 3-[4-{4-[3-(4-chlorophenyl)propoxy]phenyl}-3,6-dihydropyridin-1(2H)-yl]propanoic acid trifluoroacetate] |  | 133 |  |

Continued, in another order:

| melting point [°C] | EC50 (Human EDG-1) [nM] | SMILES | further results |
| --- | --- | --- | --- |
| 148.6 to 148.9 |  | CC1=C(CN2CC(C(=O)O)C2)CCc2cc(OC[C@@H](C)Cc3ccc(Cl)cc3)ccc21 [Example 7-10, 1-[(6-{[(2S)-3-(4-chlorophenyl)-2-methylpropyl]oxy}-1-methyl-3,4-dihydro-2-naphthalenyl)methyl]-3-azetidinecarboxylic acid] |  |
|  | 1 | CCCc1ccc(COc2ccc3c(c2)CCC(CN2CC(C(=O)O)C2)=C3C)c(OC)c1 [Example 37, 1-({6-[(2-methoxy-4-propylbenzyl)oxy]-1-methyl-3,4-dihydro-2-naphthalenyl}methyl)-3-azetidinecarboxylic acid] | decrease of heart rate (heart rate): ≤ 20%; ED50 (lymphocyte in blood): 0.029 mg/kg; inhibition of the development of EAE symptoms ([1]; oral dose of 0.1 mg/kg once a day): almost completely inhibited; inhibition of the development of EAE symptoms [1, 3]: completely inhibited; inhibition of the development of EAE symptoms [2]: almost completely inhibited |
|  | 0.7 | CCCc1ccc(COc2ccc3c(c2)CCC(CN2CC(C(=O)O)C2)=C3Cl)c(OC)c1 [Example 37-6, 1-({1-chloro-6-[(2-methoxy-4-propylbenzyl)oxy]-3,4-dihydro-2-naphthalenyl}methyl)-3-azetidinecarboxylic acid] |  |
| 165.4 to 166.9 |  | CC1=C(CN2CC(C(=O)O)C2)CCc2cc(OCCCc3ccc(Cl)cc3)ccc21 [Example 7-1, 1-({6-[3-(4-chlorophenyl)propoxy]-1-methyl-3,4-dihydro-2-naphthalenyl}methyl)-3-azetidinecarboxylic acid] |  |
